Measurements reported in ChEMBL document CHEMBL3045366, “Pyridazin-3(2H)-ones: the versatile pharmacophore of medicinal significance” (Med Chem Res, 2013).
pIC50: −log10 of the molar value. Values belong to the molecule of their own block, whether it stands above or below them.

What was measured:
[1] = Inhibition of acyl-coA cholesterol O-acyltransferase (unknown origin); design: species or system Homo sapiens
Thoracic aorta = experiment: Inodilatory activity in Wistar Rattus norvegicus (rat) thoracic aorta assessed as inhibition of phenylephrine-induced contraction; format: functional, tissue-based
Mus musculus = experiment: Anti-inflammatory activity in Mus musculus (mouse) assessed as inhibition of arachidonic acid-induced ear edema at 30 umol/kg, po relative to control; format: functional
[2] = Half life in Rattus norvegicus (rat); format: ADME, organism-based; details: in vivo

Compound: CCOc1ccc(C2=NN(CCCCOc3ccc(C4=NNC(=O)CC4C)cc3)C(=O)C3CC=CCC23)cc1OCC (stereo not given)
- inhibition in vivo at 30 µmol/kg (Mus musculus): 46%

Compound: COc1ccc(C2=NN(CCCCOc3ccc(C4=NNC(=O)CC4C)cc3)C(=O)C3CC=CCC23)cc1Cl (stereo not given)
- inhibition in vivo at 30 µmol/kg (Mus musculus): 46%

More lines, now with the values ahead:

- pIC50 [1]: 4.24
Compound: CCCCCCn1nc(-c2ccccc2)c(-c2ccccc2)cc1=O

- pIC50 (Thoracic aorta): 7.10
Compound: CS(=O)(=O)Nc1ccc(C2=NN(c3ccccc3)C(=O)CC2)cc1

- half-life [2]: 4.3 h
Compound: O=C(O)COc1cccc2c1CC[C@H](Cn1nc(C(c3ccccc3)c3ccccc3)ccc1=O)C2
